Our source for the IC50 values is patent US8642594B2, “Substituted thieno[2,3-d]pyrimidines as HSP90 inhibitors” (Vernalis (R&D) Limited, priority 2003, dated 2014).

SMILES strings stand for the structures.

T1 sequence (P08238 whole entry): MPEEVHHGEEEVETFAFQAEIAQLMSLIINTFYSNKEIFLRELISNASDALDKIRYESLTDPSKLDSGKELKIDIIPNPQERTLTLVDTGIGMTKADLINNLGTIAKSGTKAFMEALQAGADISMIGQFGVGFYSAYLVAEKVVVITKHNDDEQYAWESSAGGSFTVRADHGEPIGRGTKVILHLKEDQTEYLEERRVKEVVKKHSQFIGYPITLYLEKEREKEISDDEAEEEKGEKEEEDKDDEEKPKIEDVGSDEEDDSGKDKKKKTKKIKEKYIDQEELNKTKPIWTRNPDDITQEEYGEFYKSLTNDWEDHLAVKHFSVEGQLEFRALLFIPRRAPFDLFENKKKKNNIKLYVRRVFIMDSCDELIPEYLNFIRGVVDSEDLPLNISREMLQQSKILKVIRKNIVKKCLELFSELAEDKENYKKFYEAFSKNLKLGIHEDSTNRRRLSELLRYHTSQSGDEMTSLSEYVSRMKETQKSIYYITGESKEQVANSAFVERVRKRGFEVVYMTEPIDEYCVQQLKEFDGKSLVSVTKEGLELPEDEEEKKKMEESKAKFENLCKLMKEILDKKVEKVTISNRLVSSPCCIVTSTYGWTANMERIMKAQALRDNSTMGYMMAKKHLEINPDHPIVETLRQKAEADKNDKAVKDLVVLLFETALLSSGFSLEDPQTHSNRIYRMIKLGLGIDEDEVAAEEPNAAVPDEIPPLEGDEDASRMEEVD

One assay addresses T1, Human full-length Hsp90 (Homo sapiens, UniProt P08238).
T1 construct: E. coli expressed human full-length HSP90 protein, purified >95%; made in house; host or cells: E. coli
Nature of the assay: Fluorescence polarization assay (competitive binding to HSP90, probe RBT0045864-FAM).
Conditions: not given
On the procedure:
Fluorescence Polarization Assay
Fluorescence polarization {also known as fluorescence anisotropy} measures the rotation of a fluorescing species in solution, where the larger molecule the more polarized the fluorescence emission. When the fluorophore is excited with polarized light, the emitted light is also polarized. The molecular size is proportional to the polarization of the fluorescence emission.
The fluoroscein-labelled probe—RBT0045864-FAM—
Test compound is added to the assay plate, left to equilibrate and the anisotropy measured again. Any change in anisotropy is due to competitive binding of compound to HSP90, thereby releasing probe.
Stored at room temperature. • 3) BSA (bovine serum albumen) 10 mg/ml (New England Biolabs #B9001S) • 4) 20 mM probe in 100% DMSO stock concentration. Stored in the dark at RT. Working concentration is 200 nM diluted in AR water and stored at 4° C. […] Protocol • 1) Add 100 μl 1× buffer to wells 11A and 12A (=FP BLNK) • 2) Prepare assay mix—all reagents are kept on ice with a lid on the bucket as the probe is light-sensitive.
This gives 2.5 mM {50×} stock cpd—assuming cpds 20 mM. • 4) Repeat for wells A2 to A10. Control in columns 11 and 12. • 5) Transfer 5 μl from row A to row B—not column 12. Mix well. • 6) Transfer 5 μl from row B to row C. […] Add 2 μl of 100 mM standard cpd to wells B12-H12 {is positive control} • 13) The Z′ factor is calculated from zero controls and positive wells.
On the technique in general: In fluorescence polarisation assays a small probe gives low polarisation when free and higher when bound to something large.
As usually defined, the IC50 is the midpoint of a concentration-inhibition curve. Take `CCNC(=O)c1cc2c(-c3ccccc3)nc(N)nc2s1` [Example 43, 2-Amino-4-phenyl-thieno[2,3-d]pyrimidine-6-carboxylic acid ethylamide]: the 50% inhibitory concentration (IC50) is below 10 µM.

The same assay, now with this note: fluorescence polarization assay, activity range; read-out: Hsp90 FP IC50.
With `CCOC(=O)c1cc2c(C=Cc3ccccc3)nc(N)nc2s1` [275 Step 1], the IC50 is below 10 µM.

As to `CCOC(=O)c1cc2c(-c3ccccc3)nc(N)nc2s1` [Example 1, 2-Amino-4-phenyl-thieno[2,3-d]pyrimidine-6-carboxylic acid ethyl ester], the IC50 is below 10 µM.

In the case of `CCOC(=O)c1cc2c(-c3ccc(Cl)cc3C)nc(N)nc2s1` [Example 3], the IC50 was below 10 µM.

Turning to `CCOC(=O)c1cc2c(-c3ccc(C(F)(F)F)cc3C(F)(F)F)nc(N)nc2s1` [Example 4], the IC50 is below 10 µM.

Consider `CCOC(=O)c1cc2c(-c3ccc(OC(C)C)cc3)nc(N)nc2s1` [Example 5], for which the IC50 is above 10 µM.

With `CCOC(=O)c1cc2c(-c3c(C)cccc3C)nc(N)nc2s1` [Example 6], the IC50 was below 10 µM.

As for `CCOC(=O)c1cc2c(-c3cccc(CN4CCCC4)c3)nc(N)nc2s1` [Example 7], the IC50 is above 10 µM.

`CCOC(=O)c1cc2c(-c3ccc(OCC)cc3)nc(N)nc2s1` [Example 8]: the IC50 was below 10 µM.

In the case of `CCOC(=O)c1cc2c(-c3ccccc3Cl)nc(N)nc2s1` [Example 9], the IC50 was below 10 µM.

In the case of `CCOC(=O)c1cc2c(-c3ccc(F)cc3)nc(N)nc2s1` [Example 10], the concentration for half-maximal inhibition (IC50) was above 10 µM.

As for `CCOC(=O)c1cc2c(-c3ccc(C)cc3)nc(N)nc2s1` [Example 11], the IC50 was below 10 µM.

Take `CCOC(=O)c1cc2c(-c3ccc(OC)cc3)nc(N)nc2s1` [Example 12]: the IC50 was above 10 µM.

As for `CCOC(=O)c1cc2c(-c3cc4ccccc4o3)nc(N)nc2s1` [Example 13], the IC50 is above 10 µM.

For `CCOC(=O)c1cc2c(-c3cccc(Cl)c3)nc(N)nc2s1` [Example 14], the IC50 is above 10 µM.

As to `CCOC(=O)c1cc2c(-c3ccccc3C)nc(N)nc2s1` [Example 15], the IC50 was below 10 µM.

Consider `CCOC(=O)c1cc2c(-c3ccc(C#N)cc3)nc(N)nc2s1` [Example 16], for which the IC50 is below 10 µM.

`CCOC(=O)c1cc2c(-c3cccc(C#N)c3)nc(N)nc2s1` [Example 17]: the half-maximal inhibitory concentration (IC50) is above 10 µM.

As to `CCOC(=O)c1cc2c(-c3ccsc3)nc(N)nc2s1` [Example 18], the IC50 was above 10 µM.

As to `CCOC(=O)c1cc2c(Oc3ccccc3)nc(N)nc2s1` [Example 19], the IC50 was above 10 µM.

Take `CCOC(=O)CSc1nc(N)nc2sc(C(=O)OCC)cc12` [Example 20]: the IC50 was above 10 µM.

On to `COC(=O)c1cc2c(Nc3ccccc3)nc(N)nc2s1` [Example 21], for which the IC50 was above 10 µM.

`COC(=O)c1cc2c(NCc3ccccc3)nc(N)nc2s1` [Example 22, 2-Amino-4-benzylamino-thieno[2,3-d]pyrimidine-6-carboxylic acid methyl ester]: the half-maximal inhibitory concentration (IC50) was above 10 µM.

Regarding `COC(=O)c1cc2c(N(C)Cc3ccccc3)nc(N)nc2s1` [Example 23], the IC50 was above 10 µM.

Regarding `CCOC(=O)c1cc2c(NC3CCCCC3)nc(N)nc2s1` [Example 24], the 50% inhibitory concentration (IC50) was above 10 µM.

For the compound `CCOC(=O)c1cc2c(NC(c3ccccc3)c3ccccc3)nc(N)nc2s1` [Example 25], the IC50 is above 10 µM.

On to `CCOC(=O)c1cc2c(NC(C)c3ccccc3)nc(N)nc2s1` (stereo not drawn) [Example 26], for which the IC50 is above 10 µM.

As for `CNC(=O)c1cc2c(Oc3ccccc3)nc(N)nc2s1` [Example 27], the 50% inhibitory concentration (IC50) was above 10 µM.

On to `CCOC(=O)c1cc2c(Nc3ccccc3)nc(N)nc2s1` [Example 28], for which the IC50 was above 10 µM.

Consider `CCOC(=O)c1cc2c(NC(C)(C)c3ccccc3)nc(N)nc2s1` [Example 29], for which the IC50 was above 10 µM.

Regarding `CCOC(=O)c1cc2c(-c3ccc(CN4CCCC4)cc3)nc(N)nc2s1` [Example 30], the IC50 was above 10 µM.

As for `CCOC(=O)c1cc2c(NCCCN3CCCC3=O)nc(N)nc2s1` [Example 31], the IC50 is above 10 µM.

For the compound `CCOC(=O)c1cc2c(-c3ccc(C#N)cc3C)nc(N)nc2s1` [Example 32], the IC50 is below 10 µM.

For the compound `CCOC(=O)c1cc2c(-c3ccc(CN4CCCCC4)cc3)nc(N)nc2s1` [Example 33, 2-Amino-4-(4-piperidin-1-ylmethyl-phenyl)-thieno[2,3-d]pyrimidine-6-carboxylic acid ethyl ester], the concentration for half-maximal inhibition (IC50) was above 10 µM.

As to `CCOC(=O)c1cc2c(-c3ccc(C)cc3C)nc(N)nc2s1` [Example 34], the IC50 is below 10 µM.

For the compound `CCOC(=O)c1cc2c(-c3ccc(CO)cc3)nc(N)nc2s1` [Example 35], the IC50 was below 10 µM.

For the compound `CCOC(=O)c1cc2c(NCCCc3c[nH]nc3O)nc(N)nc2s1` [Example 36], the IC50 is above 10 µM.

Turning to `CCOC(=O)c1cc2c(NCCCc3c[nH]nc3C)nc(N)nc2s1` [Example 37], the IC50 is above 10 µM.

As for `CCOC(=O)c1cc2c(Nc3ccc4cn[nH]c4c3)nc(N)nc2s1` [Example 39], the IC50 was above 10 µM.

For the compound `CCOC(=O)c1cc2c(-c3cccc(C(N)=O)c3)nc(N)nc2s1` [Example 40], the IC50 is above 10 µM.

With `CCOC(=O)c1cc2c(-c3ccc(CN4CCOCC4)cc3)nc(N)nc2s1` [Example 41], the IC50 was above 10 µM.

Take `CN(C)CCNC(=O)c1cc2c(-c3ccccc3)nc(N)nc2s1` [Example 44]: the IC50 was below 10 µM.

Regarding `CN(C)CCCNC(=O)c1cc2c(-c3ccccc3)nc(N)nc2s1` [Example 45], the IC50 was above 10 µM.

Regarding `Nc1nc(-c2ccccc2)c2cc(C(=O)NCCN3CCOCC3)sc2n1` [Example 46], the IC50 was above 10 µM.

For the compound `CCCNC(=O)c1cc2c(-c3ccccc3)nc(N)nc2s1` [Example 47], the IC50 was below 10 µM.

Regarding `CCCCNC(=O)c1cc2c(-c3ccccc3)nc(N)nc2s1` [Example 48], the IC50 was above 10 µM.

For the compound `Nc1nc(-c2ccccc2)c2cc(C(=O)NCCc3ccccc3)sc2n1` [Example 49], the IC50 was above 10 µM.

In the case of `Nc1nc(-c2ccccc2)c2cc(C(=O)NCCCc3ccccc3)sc2n1` [Example 50], the IC50 is above 10 µM.

As to `Nc1nc(-c2ccccc2)c2cc(C(=O)NCCc3cccnc3)sc2n1` [Example 51], the IC50 is above 10 µM.

With `CC(C)CNC(=O)c1cc2c(-c3ccccc3)nc(N)nc2s1` [Example 52], the IC50 is above 10 µM.

Regarding `Nc1nc(-c2ccccc2)c2cc(C(=O)NCCCO)sc2n1` [Example 53], the IC50 was below 10 µM.

Consider `Nc1nc(-c2ccccc2)c2cc(C(=O)NCCc3cccs3)sc2n1` [Example 55], for which the IC50 was above 10 µM.

In the case of `CC(C)NC(=O)c1cc2c(-c3ccccc3)nc(N)nc2s1` [Example 56], the IC50 was below 10 µM.

`Nc1nc(-c2ccccc2)c2cc(C(=O)NCCc3cnc[nH]3)sc2n1` [Example 57]: the concentration for half-maximal inhibition (IC50) was below 10 µM.

With `CCN(CC)CCCNC(=O)c1cc2c(-c3ccccc3)nc(N)nc2s1` [Example 58], the IC50 was above 10 µM.

`CCC(C)NC(=O)c1cc2c(-c3ccccc3)nc(N)nc2s1` (stereo not drawn) [Example 59]: the IC50 is above 10 µM.

With `Nc1nc(-c2ccccc2)c2cc(C(=O)Nc3ccccc3)sc2n1` [Example 60], the IC50 was above 10 µM.

`CCCNC(=O)c1cc2c(-c3ccc(C)cc3C)nc(N)nc2s1` [Example 61]: the IC50 is below 10 µM.

As for `Nc1nc(-c2ccccc2)c2cc(C(=O)NC3CCCC3)sc2n1` [Example 62], the IC50 is below 10 µM.

With `CN(c1ccccc1)c1nc(N)nc2sc(C(N)=O)cc12` [Example 63], the IC50 was above 10 µM.

With `CNC(=O)c1cc2c(Nc3ccccc3)nc(N)nc2s1` [Example 64], the IC50 is above 10 µM.

Consider `CNC(=O)c1cc2c(NCc3ccccc3)nc(N)nc2s1` [Example 65], for which the IC50 was above 10 µM.

For `Nc1nc(-c2ccccc2)c2cc(C(=O)NCCCN3CCOCC3)sc2n1` [Example 66], the IC50 is above 10 µM.

`CNC(=O)c1cc2c(N(C)Cc3ccccc3)nc(N)nc2s1` [Example 67]: the IC50 was above 10 µM.

Consider `Nc1nc(-c2ccccc2)c2cc(C(=O)N3CCOCC3)sc2n1` [Example 70], for which the IC50 was above 10 µM.

In the case of `NC(=O)CNC(=O)c1cc2c(-c3ccccc3)nc(N)nc2s1` [Example 71], the IC50 is below 10 µM.

With `Nc1nc(-c2ccccc2)c2cc(C(=O)NCCO)sc2n1` [Example 72], the IC50 was below 10 µM.

Take `CCNC(=O)c1cc2c(-c3c(C)cccc3C)nc(N)nc2s1` [Example 73]: the IC50 was below 10 µM.

`CCOC(=O)c1sc2nc(N)nc(-c3ccccc3)c2c1N` [Example 74, 2,5-Diamino-4-phenyl-thieno[2,3-d]pyrimidine-6-carboxylic acid ethyl ester]: the IC50 is above 10 µM.

Turning to `Cc1c(C(N)=O)sc2nc(N)nc(-c3ccccc3)c12` [Example 75, 2-Amino-5-methyl-4-phenyl-thieno[2,3-d]pyrimidine-6-carboxylic acid amide], the IC50 was above 10 µM.

`CCOC(=O)c1cc2c(-c3ccccc3CC)nc(N)nc2s1` [Example 76]: the IC50 was above 10 µM.

Regarding `CCOC(=O)c1cc2c(-c3c(C)cc(C)cc3C)nc(N)nc2s1` [Example 77], the IC50 was below 10 µM.
